Tests used:
[1] = Inhibition of the thromboxane A2 receptor assayed by binding to guinea pig platelets using [3H]U-46619 as radioligand
[2] = Binding affinity at TXA2 receptor by measuring its ability to displace [3H]U-46619 from guinea pig platelets
[3] = Compound was tested for its binding affinity at Thromboxane A2 receptor by measuring its ability to displace [3H]U-46619 from guinea pig platelets
[4] = Compound was tested for its inhibitory activity against TXA2 synthase obtained from bovine platelet microsomes
[5] = molecular target: Thromboxane-A synthase (Bos taurus); test: Inhibitory effect against thromboxane A2 synthase binding to bovine platelets

Q: For `O=C(O)c1ccc2c(c1)C(SCCNC(=S)NCc1ccccc1)c1ccccc1CO2` (stereo not given), which Ki [1] is on record?
A: Its Ki is 0.0061 µM.

Q: What about the Ki [2] of the same compound?
A: The Ki was 0.0061 µM.

Q: What does the source list for `O=C(O)c1ccc2c(c1)C(SCCNS(=O)(=O)c1ccccc1[N+](=O)[O-])c1ccccc1CO2` (stereo not given)?
A: Ki [3]: 0.015 µM; Ki [1]: 0.015 µM

Q: What does the source list for `O=C(O)c1ccc2c(c1)C(SCCNS(=O)(=O)c1ccc3ccccc3c1)c1ccccc1CO2` (stereo not given)?
A: Ki [1]: 0.014 µM; Ki [2]: 0.014 µM

Q: Which results are given for `O=C(O)c1ccc2c(c1)C(SCCNC(=O)c1ccccc1O)c1ccccc1CO2` (stereo not given)?
A: Ki [3]: 0.0051 µM; Ki [1]: 0.0051 µM

Q: With `O=C(O)c1ccc2c(c1)C(SCCNS(=O)(=O)c1cccc([N+](=O)[O-])c1)c1ccccc1CO2` (stereo not given) as the compound, how does the Ki [1] read?
A: Its Ki is 0.014 µM.

Q: What about the Ki [2] of the same compound?
A: Its Ki is 0.014 µM.

Q: Which results are given for `O=C(O)c1ccc2c(c1)C(SCCNS(=O)(=O)c1ccccc1)c1ccccc1CC2` (stereo not given)?
A: Ki [1]: 0.03 µM; Ki [2]: 0.03 µM

Q: For `O=C(O)c1ccc2c(c1)OCc1ccccc1C2SCCNS(=O)(=O)c1ccccc1` (stereo not given), which IC50 [4] is on record?
A: Its IC50 is 0.37 µM.

Q: And the IC50 [5]?
A: Its IC50 is 0.37 µM.

Q: Which Ki [3] does the source give for `COc1ccc(S(=O)(=O)NCCSC2c3ccccc3COc3ccc(C(=O)O)cc32)cc1` (stereo not given) here?
A: The Ki was 0.017 µM.

Q: With `O=C(O)c1ccc2c(c1)C(SCCNS(=O)(=O)c1ccc(C(F)(F)F)cc1)c1ccccc1CO2` (stereo not given) as the compound, how does the Ki [3] read?
A: Its Ki is 0.02 µM.

Q: What about the Ki [1] of the same compound?
A: The Ki was 0.02 µM.

Q: With `COc1cc(C(=O)NCCSC2c3ccccc3COc3ccc(C(=O)O)cc32)cc(OC)c1OC` (stereo not given) as the compound, how does the Ki [1] read?
A: The Ki was 0.092 µM.

Q: What about the Ki [2] of the same compound?
A: The Ki was 0.092 µM.

Q: For `Cc1ccsc1C(=O)NCCSC1c2ccccc2COc2ccc(C(=O)O)cc21` (stereo not given), which Ki [1] is on record?
A: The Ki was 0.01 µM.

Q: What about the Ki [2] of the same compound?
A: The Ki was 0.01 µM.

Q: What does the source list for `O=C(O)c1ccc2c(c1)C(SCCNS(=O)(=O)c1cccs1)c1ccccc1CO2` (stereo not given)?
A: Ki [3]: 0.0057 µM; Ki [1]: 0.0057 µM

Q: With `O=C(O)c1ccc2c(c1)C(SCCNS(=O)(=O)c1ccccc1)c1ccccc1C=C2` (stereo not given) as the compound, how does the Ki [3] read?
A: Its Ki is 0.025 µM.

Q: And the Ki [1]?
A: The Ki was 0.025 µM.

Q: Which Ki [1] does the source give for `O=C(O)c1ccc2c(c1)C(SCCNC(=O)c1ccccc1)c1ccccc1CO2` (stereo not given) here?
A: Its Ki is 0.044 µM.

Q: Which results are given for `O=C(NCCSC1c2ccccc2COc2ccc(C(=O)O)cc21)Nc1ccccc1` (stereo not given)?
A: IC50 [4]: 0.83 µM; IC50 [5]: 0.83 µM

Q: For `O=C(O)c1cccc(C(SCCNS(=O)(=O)c2ccccc2)c2ccccc2)c1` (stereo not given), which Ki [1] is on record?
A: Its Ki is 0.077 µM.

Q: And the Ki [2]?
A: Its Ki is 0.077 µM.

Q: For `Cc1ccc(S(=O)(=O)NCCSC2c3ccccc3COc3ccc(C(=O)O)cc32)cc1` (stereo not given), which Ki [3] is on record?
A: The Ki was 0.027 µM.

Q: What about the Ki [1] of the same compound?
A: The Ki was 0.027 µM.

Q: What does the source list for `O=C(O)c1ccc2c(c1)C(SCCNS(=O)(=O)c1ccccc1)c1cc(Br)ccc1CO2` (stereo not given)?
A: Ki [3]: 0.0068 µM; Ki [1]: 0.0068 µM

Q: With `O=C(NCCSC1c2ccccc2COc2ccc(C(=O)O)cc21)OCc1ccccc1` (stereo not given) as the compound, how does the Ki [1] read?
A: The Ki was 0.0077 µM.

From BindingDB's records for doi:10.1021/jm00096a016 (Kyowa Hakko Kogyo, 1992)
